Assay results reported in patent EP3046573B1, “AMYLIN ANALOGUES” (Zealand Pharma A/S, priority 2013, dated 2015).
Numbered stars: 1 amine (or outer) side, 2 acyl side, 3 side chain; on linkers, the order of the positions; unused ones are H or OH. Bridge positions count the residues as written; N and C are the ends. Square brackets hold non-standard residues; d marks the D form. Peptide text beside a SMILES is read from it. * marks the point of attachment. C20 diacid = O=C(O)CCCCCCCCCCCCCCCCCCC(=O)*; γGlu = O=C(O)[C@H](CCC(=O)[*:2])N[*:1]; NMeI = CC[C@H](C)[C@H](NC)C(=O)O; Sar = CNCC(=O)O

Legend:
[1] = tested on: male Zucker diabetic fatty (ZDF) rats; assay: Efficacy testing: glycemic control in Zucker diabetic fatty rats; assay type: in vivo; conditions: for terminal HbA1c levels: 4 weeks, vehicle 8.7 ± 0.2; for non-fasting blood glucose levels on day 13 and on day 27: compared to the vehicle treated rats, P < 0.001; for fasting blood glucose levels: terminal, Compound 82 3, 30, and 100 nmol/kg, Compound 18 30 nmol/kg, P < 0.001 vs. vehicle
Procedure: (§1) Whole-blood glucose levels were determined on tail-vein blood samples by the Biosen (EKF Diagnostic, Germany) enzyme-based electrode method. Blood samples were analyzed for glycated hemoglobin (HbA1c) using a Cobas c111 analyzer (Roche Diagnostics, Mannheim, Germany). Plasma insulin levels were measured using a Meso Scale Discovery (MSD) system (Rockville, MD, USA). Liver fat content was determined by magnetic resonance (MR) scanning using an Echo systems MR scanner. Fat depots were measured by weighing of excised fat.
84 male Zucker diabetic fatty (ZDF) rats (9-10 weeks of age) were used in this study. The animals were housed in groups of n = 2. Stratification of the animals was based on non-fasting blood glucose (primary), changes in non-fasting blood glucose measured from the arrival of the animals until one week before the initiation of the study (secondary) and body weight (tertiary). The animals were further divided into two "teams" with a pair-fed group (group 2) allocated to team 2. Animals from group 2 were pair-fed in order to compare between the contribution made by reduced food intake and by drug-induced effects on glycemic control. The amount of food eaten by the animals treated with Compound 82 (30 nmol/kg, team 1) each day was determined, and the same amount was given to a vehicle-treated pair-fed group of animals the following day.
Rats were treated for 4 weeks with Compound 82 (3, 30 and 100 nmol/kg, sc, every (ev.) 5th day), Compound 18 (30 nmol/kg sc, every 5th day), or the GLP-1 analogue liraglutide (40 nmol/kg sc, twice daily (bid)).
The effects of the compounds on glycemic control were investigated by measurement of non-fasting and fasting blood glucose levels and HbA1c levels.
Statistical analyses were performed using GraphPad™ Prism version 5. The measured parameters were compared using one- way ANOVA followed by Dunnett's multiple comparison test. Comparison between the pair-fed vehicle-treated group and the Compound 82 (30 nmol/kg) group was done using Student's two-tailed and unpaired t-test. Differences were considered statistically significant at p < 0.05.

[2] = tested on: Male Sprague Dawley rats; assay: Efficacy testing: development of obesity in rats fed on a high-fat diet (HFD); assay type: in vivo
Procedure: as §1
(§2) Male Sprague Dawley rats obtained from Taconic A/S, Denmark, were used in this study. The animals arrived at least 7 days before the study start to allow acclimatization to experimental conditions. From arrival and throughout the study, the rats were housed in groups of 2 (n = 2) in a light-, temperature- and humidity-controlled room (reversed 12/12 h light/dark cycle: lights turned off during day-time and on during night-time; temperature 20-22°C; relative humidity 50-80%) and maintained on a HFD (60% of total energy from fat, D12492, Research Diet Inc., New Brunswick, USA) for 2 weeks. Animals had access ad libitum to water (domestic quality tap water with citric acid added to pH ∼ 3.6) during the entire study.The rats were stratified according to body weight (primary) and % body weight gain from the beginning of feeding with HFD (secondary), and treated for 4 weeks with Compound 18 [1, 5 and 30 nmol/kg sc, once weekly (QW)] and Compound 18 (5 nmol/kg sc, every 4th day), and with comparison/reference compounds NN96 (a pramlintide analogue, see Example 5; 30 nmol/kg sc, QW) and the marketed human GLP-1 receptor agonist liraglutide [50 nmol/kg sc, twice daily (bid)], respectively.
(§3) Post-hoc Dunnett's multiple comparison tests were conducted. When appropriate, the two-way ANOVA test was used followed by Bonferroni post tests; p < 0.05 was in all cases considered statistically significant.
(§4) The preventive effects of Compound 18 of the present invention on the development of obesity were investigated by measurement of body weight, food intake, water intake, blood glucose levels, plasma insulin levels, liver fat mass and fat depots.

[3] = tested on: Male Sprague Dawley rats; assay: Efficacy testing: food preference (FP) and development of obesity in rats fed on a high-fat diet (HFD); assay type: in vivo; conditions: rats self-selecting LFD/HFD, 30 nmol/kg sc, QW, 4 weeks
Procedure: as §1
(§5) Male Sprague Dawley rats obtained from Taconic A/S, Denmark, were used in this study. The animals arrived at least 7 days before the study start to allow acclimatization to experimental conditions. From arrival and throughout the study, the rats were housed in groups of 2 (n = 2) in a light-, temperature- and humidity-controlled room (reversed 12/12 h light/dark cycle: lights turned off during day-time and on during night-time; temperature 20-22°C; relative humidity 50-80%) and maintained on a HFD (60% of total energy from fat, D12492, Research Diet Inc., New Brunswick, USA) for 2 weeks. Animals had access ad libitum to water (domestic quality tap water with citric acid added to pH ∼ 3.6) during the entire study. The rats were stratified according to body weight (primary) and % body weight gain from the beginning of feeding with HFD (secondary). Three days before the initiation of treatment the rats were allowed to self-select between a low-fat diet (LFD, standard chow, 11 % of total energy from fat, Atromin™ 1324, Brogaarden A/S, Gentofte, Denmark) and a high-fat diet, and they remained on the self-selected regimen for the duration of the study. Rats were treated for four weeks with Compound 18 [30 nmol/kg sc, once weekly (QW)] or vehicle.
Statistical analyses were performed using GraphPad™ Prism version 5.
The efficacy of Compound 18 in relation to change in food preference and in relation to the development of obesity were investigated by measurement of food preference, body weight, food intake, water intake, blood glucose levels, plasma insulin levels, mass of liver fat and mass of fat depots.

[4] = tested on: rats self-selecting between a low-fat diet and a high-fat diet; assay: Food preference (FP) and development of obesity in rats fed on a high-fat diet (HFD); assay type: in vivo, Male Sprague Dawley rats; conditions: 30 nmol/kg sc, QW, 4 weeks
Procedure: as §1, §5
Statistical analyses were performed using GraphPad™ Prism version 5. […]

[5] = tested on: HFD-fed rats; assay: Development of obesity in rats fed on a high-fat diet (HFD); assay type: in vivo, Male Sprague Dawley rats
Procedure: as §1, §2, §3, §4

## CC[C@H](C)[C@@H](C(=O)N[C@@H](CC(C)C)C(=O)N[C@@H](CO)C(=O)N[C@@H](CO)C(=O)N[C@H](C(=O)N[C@@H](CC(N)=O)C(=O)N[C@H](C(=O)NCC(=O)N[C@@H](CO)C(=O)N[C@@H](CC(N)=O)C(=O)N[C@H](C(=O)N1CCC[C@H]1C(N)=O)[C@@H](C)O)C(C)C)[C@@H](C)O)N(C)C(=O)[C@H](C)NC(=O)CN(C)C(=O)[C@H](Cc1ccccc1)NC(=O)[C@H](CC(N)=O)NC(=O)[C@H](CC(N)=O)NC(=O)[C@H](CO)NC(=O)[C@H](CO)NC(=O)[C@H](CCCNC(=N)N)NC(=O)[C@H](Cc1c[nH]cn1)NC(=O)[C@H](CC(C)C)NC(=O)[C@H](Cc1ccccc1)NC(=O)[C@H](CCC(=O)O)NC(=O)[C@H](C)NC(=O)[C@H](CC(C)C)NC(=O)[C@H](CCCNC(=N)N)NC(=O)[C@H](CCC(N)=O)NC(=O)[C@@H](NC(=O)[C@H](C)NC(=O)[C@@H]1CSSC[C@H](NC(=O)[C@H](CCCNC(=N)N)NC(=O)CC[C@H](NC(=O)CCCCCCCCCCCCCCCCCCC(=O)O)C(=O)O)C(=O)N[C@@H](CC(N)=O)C(=O)N[C@@H]([C@@H](C)O)C(=O)N[C@@H](C)C(=O)N[C@@H]([C@@H](C)O)C(=O)N1)[C@@H](C)O [Compound 18, [19CD]-isoGlu-RC()NTATC()ATQRLAEFLHRSSNNF-Gly(Me)-A-Ile(Me)-LSSTNVGSNTP-NH2] ({C20 diacid-γGlu}-RCNTATCATQRLAEFLHRSSNNF[Sar]A[NMeI]LSSTNVGSNTP-NH2; disulfide 2-7)
[1]; 30 nmol/kg sc every 5th day
  terminal HbA1c levels: 5.4 ± 0.1%
[1]
  non-fasting blood glucose levels on day 13 and on day 27: significantly lower
  fasting blood glucose levels: significantly decreased
[2]; 4 weeks treatment
  mass of fat depots: decrease
[2]; 4 weeks treatment, vs. vehicle
  food intake: significantly decreased
[2]; 5 and 30 nmol/kg, QW, 4 weeks
  terminal liver fat mass: decrease
[2]; high-dose group (30 nmol/kg sc, QW), 4 weeks
  reduction in body weight gain at the end of the study: 26%
[3]
  body weight gain: reduction
  caloric intake deriving from LFD: significant increase
  terminal blood glucose levels: unaffected
  total caloric intake combined from both diets: decrease
[4]
  caloric intake deriving from LFD: significant increase in caloric intake deriving from LFD
[4]; rats self-selecting LFD/HFD
  body weight gain: reduction of body weight gain
  total caloric intake combined from both diets: a decrease in the total caloric intake
[5]; 5 nmol/kg sc, every 4th day, 4 weeks
  anti-obesity effects with administration every 4th day: effects similar to those of Compound 18 dosed QW
[5]; 4 weeks treatment
  mass of fat depots: a decrease in mass of fat depots
[5]; 4 weeks treatment, vs. vehicle
  food intake: significantly decreased food intake
[5]; 5 and 30 nmol/kg, QW, 4 weeks
  terminal liver fat mass: a decrease in terminal liver fat mass

## CC[C@H](C)[C@@H](C(=O)N[C@@H](CC(C)C)C(=O)N[C@@H](CO)C(=O)N[C@@H](CO)C(=O)N[C@H](C(=O)N[C@@H](CCC(=O)O)C(=O)N[C@H](C(=O)NCC(=O)N[C@@H](CO)C(=O)N[C@@H](CCC(=O)O)C(=O)N[C@H](C(=O)N1CCC[C@H]1C(N)=O)[C@@H](C)O)C(C)C)[C@@H](C)O)N(C)C(=O)[C@H](C)NC(=O)CN(C)C(=O)[C@H](Cc1ccccc1)NC(=O)[C@H](CO)NC(=O)[C@H](CO)NC(=O)[C@H](CCCNC(=N)N)NC(=O)[C@H](Cc1c[nH]cn1)NC(=O)[C@H](CC(C)C)NC(=O)[C@H](Cc1ccccc1)NC(=O)[C@H](CCC(=O)O)NC(=O)[C@H](C)NC(=O)[C@H](CC(C)C)NC(=O)[C@H](CCCNC(=N)N)NC(=O)[C@H](CCC(N)=O)NC(=O)[C@@H](NC(=O)[C@H](C)NC(=O)[C@@H]1CSSC[C@H](NC(=O)[C@H](CCCNC(=N)N)NC(=O)CC[C@H](NC(=O)CCCCCCCCCCCCCCCCCCC(=O)O)C(=O)O)C(=O)N[C@@H](CC(N)=O)C(=O)N[C@@H]([C@@H](C)O)C(=O)N[C@@H](C)C(=O)N[C@@H]([C@@H](C)O)C(=O)N1)[C@@H](C)O [Compound 82, [19CD]-isoGlu-RC()NTATC()ATQRLAEFLHRSSF-Gly(Me)-A-Ile(Me)-LSSTEVGSETP-NH2] ({C20 diacid-γGlu}-RCNTATCATQRLAEFLHRSSF[Sar]A[NMeI]LSSTEVGSETP-NH2; disulfide 2-7)
[1]; 3 nmol/kg sc every 5th day
  terminal HbA1c levels: 5.6 ± 0.2%
[1]; 30 nmol/kg sc every 5th day
  terminal HbA1c levels: 5.4 ± 0.1%
[1]; 30 nmol/kg, P < 0.05
  HbA1c levels compared to the pair-fed group: significant reductions
[1]; 100 nmol/kg sc every 5th day
  terminal HbA1c levels: 5.4 ± 0.1%
[1]
  non-fasting blood glucose levels on day 13 and on day 27: significantly lower
  fasting blood glucose levels: significantly decreased
